# Experimental data: patent US9102614B2, “Naphth-2-ylacetic acid derivatives to treat AIDS” (Gilead Sciences, Inc., priority 2010, dated 2015)
# Tested on: HIV-IIIb
# Assay: Test A: Antiviral Assays in MT4 Cells
# Type: cell-based
# Conditions: Human immunodeficiency virus 1, IIIB, MT4, 120 h, MT-4 cells infected with HIV-IIIb (0.004 m.o.i.), 5 days of incubation, CellTiter-Glo chemiluminescence readout; read-out: EC50
# Summary of the method: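 MT-4 cells pre-infected with HIV-IIIb (0.004 m.o.i.) at 37 °C, then plated with 3-fold serially diluted compound (10 concentrations, quadruplicate, RPMI 1640/10% FBS). After 5 days at 37 °C, cell viability read by CellTiter-Glo chemiluminescence; mock-infected cells run in parallel.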
row,SMILES,EC50 [nM]
1,"COCc1cc2ccccc2c(-c2ccc(Cl)cc2)c1[C@H](OC(C)(C)C)C(=O)O [Compound 28, (S)-2-tert-Butoxy-2-(1-(4-chlorophenyl)-3-(methoxymethyl)naphthalen-2-yl)acetic acid]",400
2,"CCc1c(C)c(C(OC(C)(C)C)C(=O)O)c(-c2ccc(Cl)cc2)c2ccccc12 (centres unmarked) [Compound 129, 2-tert-Butoxy-2-(1-(4-chlorophenyl)-4-ethyl-3-methylnaphthalen-2-yl)acetic acid]",170
3,"Cc1cc2ccc(CCC3CCCC3)cc2c(-c2ccc(Cl)cc2)c1C(OC(C)(C)C)C(=O)O (centres unmarked) [Compound 90, 2-tert-Butoxy-2-(1-(4-chlorophenyl)-7-(2-cyclopentylethyl)-3-methylnaphthalen-2-yl)acetic acid]",31000
4,"Cc1cc2cc(C(F)F)c(F)cc2c(-c2ccc3c4c(ccnc24)CCO3)c1[C@H](OC(C)(C)C)C(=O)O (atropisomer, axis not shown) [Compound 164]",25000
5,"Cc1cc2c(F)cccc2c(-c2ccc3c4c(ccnc24)CCO3)c1C(OC(C)(C)C)C(=O)O (centres unmarked) [Compound 44, 2-tert-Butoxy-2-(1-(2,3-dihydropyrano[4,3,2-de]quinolin-7-yl)-5-fluoro-3-methylnaphthalen-2-yl)acetic acid]",120
6,"Cc1c(C(OC(C)(C)C)C(=O)O)c(-c2ccc(Cl)cc2)c2ccccc2c1CN1CCOCC1 (centres unmarked) [Compound 134, 2-tert-Butoxy-2-(1-(4-chlorophenyl)-3-methyl-4-(morpholinomethyl)naphthalen-2-yl)acetic acid]",150
7,"Cc1cc2cc(-c3cn(C)cn3)ccc2c(-c2ccc(Cl)cc2)c1[C@H](OC(C)(C)C)C(=O)O [Compound 64, (S)-2-tert-Butoxy-2-(1-(4-chlorophenyl)-3-methyl-6-(1-methyl-1H-imidazol-4-yl)naphthalen-2-yl)acetic acid]",52
8,"Cc1cc2cc(C#N)c(F)cc2c(-c2ccc3c4c(ccnc24)CCO3)c1[C@H](OC(C)(C)C)C(=O)O (atropisomer, axis not shown) [Compound 169]",18000
9,"CNC(=O)c1cc2cc(C)c([C@H](OC(C)(C)C)C(=O)O)c(-c3ccc4c5c(ccnc35)CCO4)c2cc1F (atropisomer, axis not shown) [Compound 166]",16000
10,"Cc1cc2c(Cl)cc(F)cc2c(-c2ccc3c4c(ccnc24)CCO3)c1[C@H](OC(C)(C)C)C(=O)O [Compound 111, (2S)-2-tert-Butoxy-2-(5-chloro-1-(2,3-dihydropyrano[4,3,2-de]quinolin-7-yl)-7-fluoro-3-methylnaphthalen-2-yl)acetic acid]",1100
11,"CC(C)(C)O[C@H](C(=O)O)c1c(C(F)F)cc2ccccc2c1-c1ccc2c3c(ccnc13)CCO2 [Compound 32, (S)-2-tert-Butoxy-2-((R)-3-(difluoromethyl)-1-(2,3-dihydropyrano[4,3,2-de]quinolin-7-yl)naphthalen-2-yl)acetic acid]",86
12,"CCc1ccc2cc(C)c(C(OC(C)(C)C)C(=O)O)c(-c3ccc(Cl)cc3)c2c1 (centres unmarked) [Compound 93, 2-tert-Butoxy-2-(1-(4-chlorophenyl)-7-ethyl-3-methylnaphthalen-2-yl)acetic acid]",86
13,"Cc1cc2ccccc2c(C2=CCC(C)(C)CC2)c1[C@H](OC(C)(C)C)C(=O)O [Compound 14, (S)-2-tert-Butoxy-2-(1-(4,4-dimethylcyclohex-1-enyl)-3-methylnaphthalen-2-yl)acetic acid]",11
14,"CCc1cc2cc(C)c([C@H](OC(C)(C)C)C(=O)O)c(-c3ccc4c5c(ccnc35)CCO4)c2cc1F (atropisomer, axis not shown) [Compound 165]",53000
15,"Cc1cc2ccccc2c(C2=CCCC2)c1[C@H](OC(C)(C)C)C(=O)O [Compound 12, (S)-2-tert-Butoxy-2-(1-cyclopentenyl-3-methylnaphthalen-2-yl)acetic acid]",110
16,"Cc1cc2ccc(C#CC3(O)CCOCC3)cc2c(-c2ccc(Cl)cc2)c1C(OC(C)(C)C)C(=O)O (centres unmarked) [Compound 80, 2-tert-Butoxy-2-(1-(4-chlorophenyl)-7-((4-hydroxytetrahydro-2H-pyran-4-yl)ethynyl)-3-methylnaphthalen-2-yl)acetic acid]",51
17,"Cc1cc2ccc(C#CC3(O)CCN(C)CC3)cc2c(-c2ccc(Cl)cc2)c1C(OC(C)(C)C)C(=O)O (centres unmarked) [Compound 79, 2-tert-Butoxy-2-(1-(4-chlorophenyl)-7-((4-hydroxy-1-methylpiperidin-4-yl)ethynyl)-3-methylnaphthalen-2-yl)acetic acid]",89
18,"Cc1cc2ccccc2c(-c2ccc(F)c3cccnc23)c1[C@H](OC(C)(C)C)C(=O)O [Compound 10, (2S)-2-tert-Butoxy-2-(1-(5-fluoroquinolin-8-yl)-3-methylnaphthalen-2-yl)acetic acid]",36000
19,"Cc1c(C(OC(C)(C)C)C(=O)O)c(-c2ccc(Cl)cc2)c2ccccc2c1-c1cccnc1 (centres unmarked) [Compound 138, 2-tert-butoxy-2-(1-(4-chlorophenyl)-3-methyl-4-(pyridin-3-yl)naphthalen-2-yl)acetic acid]",40
20,"Cc1ccc2ccc(F)c(-c3c([C@H](OC(C)(C)C)C(=O)O)c(C)cc4ccccc34)c2n1 [Compound 17, (S)-2-(tert-Butoxy)-2-((S)-1-(7-fluoro-2-methylquinolin-8-yl)-3-methylnaphthalen-2-yl)acetic acid]",7700
21,"Cc1c(C(OC(C)(C)C)C(=O)O)c(-c2ccc(Cl)cc2)c2ccccc2c1-c1cnc(N)nc1 (centres unmarked) [Compound 145, 2-(4-(2-Aminopyrimidin-5-yl)-1-(4-chlorophenyl)-3-methylnaphthalen-2-yl)-2-tert-butoxyacetic acid]",50

# Same assay, conditions: MT-4 cells infected with HIV-IIIb (0.004 m.o.i.), 5 days of incubation, CellTiter-Glo chemiluminescence readout; read-out: EC50
row,SMILES,EC50 [nM]
1,"Cc1cc2c(Cl)c(C)ccc2c(-c2ccc3c4c(ccnc24)CCO3)c1[C@H](OC(C)(C)C)C(=O)O [Compound 116, (S)-2-tert-Butoxy-2-((R)-5-chloro-1-(2,3-dihydropyrano[4,3,2-de]quinolin-7-yl)-3,6-dimethylnaphthalen-2-yl)acetic acid]",16
2,"Cc1cc2cc(C(F)F)c(F)cc2c(-c2ccc3c4c(ccnc24)CCO3)c1[C@H](OC(C)(C)C)C(=O)O [Compound 103, (S)-2-tert-Butoxy-2-((R)-6-(difluoromethyl)-1-(2,3-dihydropyrano[4,3,2-de]quinolin-7-yl)-7-fluoro-3-methylnaphthalen-2-yl)acetic acid]",26
3,"Cc1cc2cc(C)c([C@H](OC(C)(C)C)C(=O)O)c(-c3ccc4c5c(ccnc35)CCO4)c2cc1F [Compound 112, (S)-2-tert-Butoxy-2-((R)-1-(2,3-dihydropyrano[4,3,2-de]quinolin-7-yl)-7-fluoro-3,6-dimethylnaphthalen-2-yl)acetic acid]",9
4,"CCC(C)(C)O[C@H](C(=O)O)c1c(C)cc2ccccc2c1-c1ccc2c3c(ccnc13)CCO2 [Compound 185, (S)-2-((R)-1-(2,3-dihydropyrano[4,3,2-de]quinolin-7-yl)-3-methylnaphthalen-2-yl)-2-(tert-pentyloxy)acetic acid]",24
5,"Cc1cc2c(F)c(Cl)ccc2c(-c2ccc3c4c(ccnc24)CCO3)c1[C@H](OC(C)(C)C)C(=O)O (atropisomer, axis not shown) [Compound 152]",5800
6,"Cc1cc2c(F)c(C(F)F)ccc2c(-c2ccc3c4c(ccnc24)CCO3)c1[C@H](OC(C)(C)C)C(=O)O [Compound 121, (S)-2-tert-Butoxy-2-((R)-6-(difluoromethyl)-1-(2,3-dihydropyrano[4,3,2-de]quinolin-7-yl)-5-fluoro-3-methylnaphthalen-2-yl)acetic acid]",14
7,"Cc1cc2c(-c3cncnc3)cc(F)cc2c(-c2ccc3c4c(ccnc24)CCO3)c1[C@H](OC(C)(C)C)C(=O)O [Compound 114, (S)-2-tert-butoxy-2-((R)-1-(2,3-dihydropyrano[4,3,2-de]quinolin-7-yl)-7-fluoro-3-methyl-5-(pyrimidin-5-yl)naphthalen-2-yl)acetic acid]",1900
8,"Cc1cc2cc(C3CC3)c(F)cc2c(-c2ccc3c4c(ccnc24)CCO3)c1[C@H](OC(C)(C)C)C(=O)O [Compound 105, (S)-2-tert-Butoxy-2-((R)-6-cyclopropyl-1-(2,3-dihydropyrano[4,3,2de]quinolin-7-yl)-7-fluoro-3-methylnaphthalen-2-yl)acetic acid]",43
9,"Cc1cc2c(C(N)=O)cc(F)cc2c(-c2ccc3c4c(ccnc24)CCO3)c1[C@H](OC(C)(C)C)C(=O)O [Compound 113B, (S)-2-tert-Butoxy-2-((R)-5-carbamoyl-1-(2,3-dihydropyrano[4,3,2-de]quinolin-7-yl)-7-fluoro-3-methylnaphthalen-2-yl)acetic acid]",460
10,Cc1cc2c(Cl)cccc2c(-c2ccc3c4c(ccnc24)CCO3)c1C(OC(C)(C)C)C(=O)O (centres unmarked) [Compound 163],16000
11,"Cc1cc2cc(C(N)=O)c(F)cc2c(-c2ccc3c4c(ccnc24)CCO3)c1[C@H](OC(C)(C)C)C(=O)O [Compound 106B, (S)-2-tert-Butoxy-2-((R)-6-carbamoyl-1-(2,3-dihydropyrano[4,3,2-de]quinolin-7-yl)-7-fluoro-3-methylnaphthalen-2-yl)acetic acid]",91
12,"Cc1cc2c(F)c(CN(C)C)ccc2c(-c2ccc3c4c(ccnc24)CCO3)c1[C@H](OC(C)(C)C)C(=O)O [Compound 186A, (S)-2-tert-butoxy-2-((R)-1-(2,3-dihydropyrano[4,3,2-de]quinolin-7-yl)-6-((dimethylamino)methyl)-5-fluoro-3-methylnaphthalen-2-yl)acetic acid]",1690
13,Cc1cc2ccccc2c(C2=CC(C)(C)CCC2=O)c1[C@H](OC(C)(C)C)C(=O)O [Compound 157],10000
14,"Cc1cc2cc(C(C)C)c(F)cc2c(-c2ccc3c4c(ccnc24)CCO3)c1[C@H](OC(C)(C)C)C(=O)O [Compound 102, (S)-2-tert-Butoxy-2-((R)-1-(2,3-dihydropyrano[4,3,2-de]quinolin-7-yl)-7-fluoro-6-isopropyl-3-methylnaphthalen-2-yl)acetic acid]",37
